Experimental data as given in patent US10294202B2, “Pyrrolidinones as herbicides” (FMC Corporation, priority 2013, dated 2019).

Experiments:
[1] = tested on: wheat; test: Test A pre-/postemergence herbicide test; type: in vivo, Triticum aestivum; settings: Postemergence
Outline: (§1)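 Visual 0–100 ratings (100 = complete control) made about 10 days after treatment, greenhouse-held plants compared with untreated controls. Treatments: postemergence sprays on one- to two-leaf plants (2–10 cm tall) and preemergence directed soil sprays after planting in loam–sand, chemicals formulated in non-phytotoxic solvent containing surfactant.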

[2] = tested on: kochia; test: Test A pre-/postemergence herbicide test; type: in vivo, Kochia scoparia; settings: for Plant response rating, Kochia: 0 to 100 scale
Outline: as §1

[3] = tested on: barnyardgrass; test: Test C flooded paddy test; type: in vivo, Echinochloa crus-galli; settings: Flood
Outline: (§2)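 Visual ratings from 0, no effect, to 100, complete control, were made against untreated controls after 13–15 greenhouse days. Compounds had gone straight into paddy water 3 cm above the soil, kept at that depth, on 2-leaf-stage plants.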

[4] = tested on: ducksalad; test: Test C flooded paddy test; type: in vivo, Heteranthera limosa; settings: Flood
Outline: as §2

[5] = tested on: sedge, umbrella; test: Test B flooded paddy test; type: in vivo, Cyperus difformis; settings: 1000 g ai/ha, Flood; scale of 0 to 100 where 0 is no effect and 100 is complete control
Outline: (§3)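 2-leaf plants; flood 3 cm over soil; compound into paddy water; depth held. Greenhouse 13–15 d. Visual rating vs controls, 0 (no effect) to 100 (complete control); dash = not tested.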

[6] = tested on: pigweed; test: Test A pre-/postemergence herbicide test; type: in vivo, Amaranthus retroflexus; settings: for Plant response rating, Pigweed: 0 to 100 scale
Outline: as §1

[7] = tested on: ducksalad; test: Test B flooded paddy test; type: in vivo, Heteranthera limosa; settings: 1000 g ai/ha, Flood; scale of 0 to 100 where 0 is no effect and 100 is complete control
Outline: as §3

[8] = tested on: ryegrass, Italian; test: Test A pre-/postemergence herbicide test; type: in vivo, Lolium multiflorum; settings: for Plant response rating, Ryegrass, Italian: 0 to 100 scale
Outline: as §1

[9] = tested on: barnyardgrass; test: Test A pre-/postemergence herbicide test; type: in vivo, Echinochloa crus-galli; settings: for Plant response rating, Barnyardgrass: 0 to 100 scale
Outline: as §1

[10] = tested on: sedge, umbrella; test: Test C flooded paddy test; type: in vivo, Cyperus difformis; settings: Flood
Outline: as §2

[11] = tested on: blackgrass; test: Test A postemergence herbicide test; type: in vivo, Alopecurus myosuroides
Outline: (§4)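 Visual injury rating, 0 (no effect) to 100 (complete control), versus untreated controls ~10 days after treatment. Postemergence spray applied at one- to two-leaf stage, plants 2–10 cm tall, potted in loam soil/sand. Greenhouse-held.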

[12] = tested on: galium; test: Test A postemergence herbicide test; type: in vivo, Galium aparine
Outline: as §4

[13] = tested on: rice; test: Test C flooded paddy test; type: in vivo, Oryza sativa; settings: Flood
Outline: as §2

[14] = tested on: rice; test: Test B flooded paddy test; type: in vivo, Oryza sativa; settings: 1000 g ai/ha, Flood; scale of 0 to 100 where 0 is no effect and 100 is complete control
Outline: as §3

[15] = tested on: corn; test: Test A pre-/postemergence herbicide test; type: in vivo, Zea mays; settings: Postemergence
Outline: as §1

[16] = tested on: barnyardgrass; test: Test B flooded paddy test; type: in vivo, Echinochloa crus-galli; settings: 1000 g ai/ha, Flood; scale of 0 to 100 where 0 is no effect and 100 is complete control
Outline: as §3

[17] = tested on: ragweed; test: Test A pre-/postemergence herbicide test; type: in vivo, Ambrosia elatior; settings: for Plant response rating, Ragweed: 0 to 100 scale
Outline: as §1

[18] = tested on: giant foxtail; test: Test A pre-/postemergence herbicide test; type: in vivo, Setaria faberii; settings: for Plant response rating, Foxtail, Giant: 0 to 100 scale
Outline: as §1

[19] = 125 g ai/ha, 0 to 100 scale, 0 is no effect, 100 is complete control
[20] = 125 g ai/ha, visual rating, 0 no effect, 100 complete control, approximately 10 days, preemergence
[21] = Postemergence, 125 g ai/ha, 0 is no effect, 100 is complete control
[22] = preemergence, 500 g ai/ha, 0 is no effect and 100 is complete control
[23] = 125 g ai/ha, scale of 0 to 100 where 0 is no effect and 100 is complete control, 13 to 15 days
[24] = 250 g ai/ha, scale of 0 to 100 where 0 is no effect and 100 is complete control, 13 to 15 days

CC(C)(C)c1cccc(C2CNC(=O)C2C(=O)Nc2cccc(F)c2F)c1 (racemic) [Compound 200]
Plant response rating, Wheat [1, 19]: 0 | Wheat plant response rating (0 to 100 scale, 0 is no effect, 100 is complete control) ([1]; 500 g ai/ha): 20 | Plant response rating, Kochia [2, 20]: 0 | Plant response rating, Kochia [2, 21]: 0 | Kochia plant response rating (0 to 100 scale, 0 is no effect, 100 is complete control) ([2]; Postemergence, 500 g ai/ha): 0 | Plant response rating, Kochia [2, 22]: 0 | Plant response rating, Barnyardgrass [3, 23]: 15 | Plant response rating, Barnyardgrass [3, 24]: 25 | Plant response rating, Barnyardgrass ([3]; 500 g ai/ha, scale 0 to 100): 40 | Plant response rating, Barnyardgrass ([3]; 1000 g ai/ha, scale 0 to 100): 55 | Plant response rating, Ducksalad [4, 23]: 70 | Plant response rating, Ducksalad [4, 24]: 70 | Plant response rating, Ducksalad ([4]; 500 g ai/ha, scale 0 to 100): 100 | Plant response rating, Ducksalad ([4]; 1000 g ai/ha, scale 0 to 100): 100 | Plant response rating, Sedge, Umbrella [5]: 0 | Plant response rating, Pigweed [6, 20]: 0 | Plant response rating, Pigweed [6, 21]: 0 | Pigweed plant response rating (0 to 100 scale, 0 is no effect, 100 is complete control) ([6]; Postemergence, 500 g ai/ha): 0 | Plant response rating, Pigweed [6, 22]: 0 | Plant response rating, Ducksalad [7]: 95 | Plant response rating, Ryegrass, Italian [8, 20]: 0 | Plant response rating, Ryegrass, Italian [8, 21]: 0 | Ryegrass, Italian plant response rating (0 to 100 scale, 0 is no effect, 100 is complete control) ([8]; Postemergence, 500 g ai/ha): 0 | Plant response rating, Ryegrass, Italian [8, 22]: 0 | Plant response rating, Barnyardgrass [9, 20]: 60 | Plant response rating, Barnyardgrass [9, 21]: 70 | Barnyardgrass plant response rating (0 to 100 scale, 0 is no effect, 100 is complete control) ([9]; Postemergence, 500 g ai/ha): 90 | Plant response rating, Barnyardgrass [9, 22]: 90 | Plant response rating, Sedge, Umbrella [10, 23]: 0 | Plant response rating, Sedge, Umbrella [10, 24]: 0 | Plant response rating, Sedge, Umbrella ([10]; 500 g ai/ha, scale 0 to 100): 0 | Plant response rating, Sedge, Umbrella ([10]; 1000 g ai/ha, scale 0 to 100): 0 | Plant response rating, Blackgrass [11, 19]: 0 | Blackgrass plant response rating (0 to 100 scale, 0 is no effect, 100 is complete control) ([11]; 500 g ai/ha): 0 | Plant response rating, Galium [12, 19]: 0 | Galium plant response rating (0 to 100 scale, 0 is no effect, 100 is complete control) ([12]; 500 g ai/ha): 0 | Plant response rating, Rice [13, 23]: 0 | Plant response rating, Rice [13, 24]: 0 | Plant response rating, Rice ([13]; 500 g ai/ha, scale 0 to 100): 0 | Plant response rating, Rice ([13]; 1000 g ai/ha, scale 0 to 100): 0 | Plant response rating, Rice [14]: 15 | Plant response rating, Corn [15, 19]: 0 | Corn plant response rating (0 to 100 scale, 0 is no effect, 100 is complete control) ([15]; 500 g ai/ha): 20 | Plant response rating, Barnyardgrass [16]: 85 | Plant response rating, Ragweed [17, 20]: 0 | Plant response rating, Ragweed [17, 21]: 0 | Ragweed plant response rating (0 to 100 scale, 0 is no effect, 100 is complete control) ([17]; Postemergence, 500 g ai/ha): 0 | Plant response rating, Ragweed [17, 22]: 0 | Plant response rating, Foxtail, Giant [18, 20]: 30 | Plant response rating, Foxtail, Giant [18, 21]: 20 | Foxtail, Giant plant response rating (0 to 100 scale, 0 is no effect, 100 is complete control) ([18]; Postemergence, 500 g ai/ha): 40 | Plant response rating, Foxtail, Giant [18, 22]: 80
